The record followed here is US12697328B2, “Methods for treating metastasis with cathepsin C inhibitors” (Shanghai Institute of Nutrition and Health, Chinese Academy …, priority 2020, dated 2026).

The target of test [1] is T1, membrane-bound PR3 (Homo sapiens, UniProt P24158).
T1 construct: endogenous in cells; host or cells: human peripheral-blood neutrophils (whole-cell suspension)
T1 sequence (P24158 28-248): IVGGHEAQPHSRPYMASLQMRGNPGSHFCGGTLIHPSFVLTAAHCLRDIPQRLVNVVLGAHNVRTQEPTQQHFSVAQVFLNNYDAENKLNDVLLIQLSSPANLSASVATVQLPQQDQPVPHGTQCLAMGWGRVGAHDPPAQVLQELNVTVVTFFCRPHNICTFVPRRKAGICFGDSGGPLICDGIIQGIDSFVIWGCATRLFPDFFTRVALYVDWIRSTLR
Put plainly: Membrane-bound PR3 activity of neutrophils cultured with CM of SCP28 cells overexpressing CTSC. The settings on record: Sivelestat 10 μM, Alvelestat 10 μM, CTSGi 20 μM, FIG. 7D. The test is classed as cell-based. The protocol: The procedure of enzyme activity assays were conducted as previously reported (Korkmaz et aL, “Neutrophil proteinase 3 and dipeptidyl peptidase I (cathepsin C) as pharmacological targets in granulomatosis with polyangiitis (Wegener granulomatosis),” Semin. Immunopathol. 35:411-421 (2008)). The PR3 or NE enzymatic activity was quantified by detecting the rate of hydrolysis of the PR3-specific substrate (Abz)-VADnorVADRQ-(EDDnp) or NE specific substrate (Abz)-APEEIMRRQ-(EDDnp) by cell suspension or free enzymes. To analyze membrane-bound PR3 activity, neutrophils were cultured in cancer cell CM or non-conditioned medium, and treated with DMSO or various inhibitors, including Sivelestat (10 μM), Alvelestat (10 μM) and CTSGi (20 μM) for 30-45 min at 37° C. Then, cells were suspended in activity buffer (5×10^6 per ml, PBS, 4 mM EGTA, pH 7.4) with 15 μM of the PR3-specific substrate, and the kinetic of hydrolysis was followed by measuring the fluorescence at λex=320 nm and λem=420 nm. For activation of PR3 in isolated plasma membrane fraction, recombinant human CTSC (1071-CY, R&D) was activated according to the manufacturer's instruction. […] The activity of free PR3 and NE were measured in the assay buffer (50 mM Tris, 750 mM NaCl, pH 7.4) with 15 μM specific substrates by recording the fluorescence at λex=320 nm and λem=420 nm. […]

Test [2] deals with SCP28 cells overexpressing CTSC. Nature of the test: Mice injected with CTSC-overexpressed SCP28 cells, treated with Sivelestat or DNase I. Type of test: in vivo. How it is done: Female BALB/c and athymic mice aged 6-10 weeks were used in all animal experiments. Orthotropic and intravenous injection were performed as previously described (Zhuang et al., “Differential effects on lung and bone metastasis of breast cancer by Wnt signalling inhibitor DKK1,” Nat. Cell Biol. 19:1274-1285 (2017)). For EdU labeling assays, nude mice were intravenously injected with 2×10^5 cancer cells, followed by intraperitoneal (i.p.) injection of 100 ng/mouse EdU (ThermoFisher, C10640) 24 h before lung harvest. For neutrophil depletion assays, mice received 2 initial i.p. injection (200 μg/mouse) of 1A8 Ly6G antibody (BE0075-1, BioXCel) or rat IgG control (14131, Sigma) every 3 days before cancer cell injection and then maintenance injection twice a week after cancer cell injection. For Sivelestat or DNase I treatment, mice were i.p. injected with Sivelestat (50 mg/kg) or DNase I (5 mg/kg) 2 h before cancer cell injection, followed by daily injection of the reagents for 9 days, and then maintenance shots twice a week. For GSK484 treatment, mice were treated with GSK484 (20 mg/kg, i.p. daily shots for 20 days from day 7, and then maintenance shots every two days) following orthotopic injection of AT3 or 4T07 cells. For IL-1b blocking or IL6R/CCR1 inhibition assays, mice were orthotopically inoculated with 5×10^4 AT3 and treated with i.p. administration of IgG or the IL-1β blocking antibody (100 μg per mouse), or the IL6R blocking antibody (100 μg per mouse) and the CCR1 inhibitor BX471 (20 mg/kg), every two days from day 7 until the mice were sacrificed. For brensocatib treatment, BALB/c mice were orthotopically inoculated with 1×10^5 4T1 cells, and C57/BL6 mice were orthotopically inoculated with 2×10^5 AT3. […]
The number of myeloperoxidase-positive neutrophils around GFP^+ cancer cells in the lungs of mice 72 h after injection with CTSC-overexpressed SCP28 is quantified by immunostaining of the lung tissue. […]

Test [3] has as its system liver-metastatic breast cancer cell SCP16. Put plainly: Tumor sphere formation of liver-metastatic breast cancer cells in neutrophil medium. The test is classed as cell-based. The settings on record: neutrophils cultured with cancer cell CM with or without brensocatib, FIG. 11H. How it is done:
The neutrophils are cultured with conditioned medium from the cancer cells with or without brensocatib treatment to activate NETosis, and then the neutrophil medium was used in tumor sphere formation of bone and liver-metastatic breast cancer cells to analyze the effect of neutrophil medium to facilitate tumor cell growth. The data are shown in FIG. 11E for bone-metastatic breast cancer cell SCP2 and FIG. 11H for liver-metastatic breast cancer cell SCP16.

Turning to `CC(C)(C)C(=O)Oc1ccc(S(=O)(=O)Nc2ccccc2C(=O)NCC(=O)O)cc1` [Silvelestat], the “upregulated PR3 activity resulting from CTSC overexpression” value in test [1] is “significantly reduces”. Moreover, the “neutrophil aggregation around cancer cells in the lungs” value is “persist through 7 weeks post-injection” in test [2] (7 weeks post-injection, FIG. 7G) and “decreases” in test [2] (72 h after injection, Sivelestat 50 mg/kg i.p., FIG. 7F). Also, in test [2] (up to 8 weeks post-injection, Sivelestat 50 mg/kg or DNase I 5 mg/kg i.p., FIG. 8G), the “lung metastasis (BLI)” value is on record as “suppressed”.

As for `Cn1c(=O)oc2ccc(-c3ccc(C[C@@H](C#N)NC(=O)[C@@H]4CNCCCO4)cc3)cc21` [brensocatib, (2S)—N-{(1S)-1-cyano-2-[4-(3-methyl-2-oxo-2,3-dihydro-1,3-benzoxazol-5-yl)phenyl]ethyl}-1,4-oxazepane-2-carboxamide], the “capability of drug-treated neutrophils to facilitate tumor cell growth (tumor sphere formation)” value in test [3] is given as “significantly weakened”.
